Results as given in patent US20120108636A1, “Allosteric Enhancers of th A1 Adenosine Receptor” (King Pharmaceuticals Research and Development, Inc., priority 2008, published 2012).

melting point [°C]	Structure (SMILES)
205 to 207	Nc1sc(-c2cccc(F)c2)c(CN(C2CCCCC2)C2CCCCC2)c1C(=O)c1ccc(Cl)cc1 [Example 14, {2-Amino-4-[(dicyclohexylamino)methyl]-5-(3-fluorophenyl)thiophen-3-yl}(4-chlorophenyl)methanone]
135 to 141	Nc1sc(-c2ccccc2)c(CN(C2CCCC2)C2CCCC2)c1C(=O)c1ccc(Cl)cc1 [Example 16-4, {2-Amino-4-[(dicyclopentylamino)methyl]-5-phenylthiophen-3-yl}(4-chlorophenyl)methanone]
178 to 182	COc1ccc(-c2sc(N)c(C(=O)c3ccc(Cl)cc3)c2CN(C2CCCCC2)C2CCCCC2)cc1 [Example 19, {2-Amino-4-[(dicyclohexylamino)methyl]-5-(4-methoxyphenyl)thiophen-3-yl}(4-chlorophenyl)methanone]
143 to 146	Nc1sc(/C=C/Cc2ccc(Cl)cc2)c(CN(C2CCCCC2)C2CCCCC2)c1C(=O)c1ccc(Cl)cc1 [Example 38, (E)-{2-amino-5[3-(4-chlorophenyl)prop-1-enyl]-4-[(dicyclohexylamino)methyl]thiophen-3-yl}(4-chlorophenyl)methanone]
163 to 166	Nc1sc(-c2cc(F)cc(F)c2)c(CN(C2CCCCC2)C2CCCCC2)c1C(=O)c1ccc(Cl)cc1 [Example 17, {2-Amino-4-[(dicyclohexylamino)methyl]-5-(3,5-difluorophenyl)thiophen-3-yl}(4-chlorophenyl)methanone]
175 to 177	CC(C)Oc1ccc(-c2sc(N)c(C(=O)c3ccc(Cl)cc3)c2CN(C2CCCCC2)C2CCCCC2)cc1 [Example 16-15, {2-Amino-4-[(dicyclohexylamino)methyl]-5-(4-isopropoxyphenyl)thiophen-3-yl}(4-chlorophenyl)methanone]
192 to 194	Nc1sc(-c2ccccn2)c(CN(C2CCCCC2)C2CCCCC2)c1C(=O)c1ccc(Cl)cc1 [Example 34, {2-am ino-4-[(dicyclohexylamino)methyl]-5-(pyridin-2-yl)thiophen-3-yl}(4-chlorophenyl)methanone]
140 to 145	COCCN(CCOC)Cc1c(-c2ccccc2)sc(N)c1C(=O)c1ccc(Cl)cc1 [Example 16-8, {2-Amino-4-[(bis(2-methoxyethyl)amino)methyl]-5-phenylthiophen-3-yl}(4-chlorophenyl)methanone]
173 to 176	Cc1ccc(N(C)Cc2c(-c3ccccc3)sc(N)c2C(=O)c2ccc(Cl)cc2)cc1 [Example 16-13, {2-Amino-4-[((4-methylphenyl)(methyl)amino)methyl]-5-phenylthiophen-3-yl}(4-chlorophenyl)methanone]
132 to 135	Nc1sc(-c2ccoc2)c(CN(C2CCCCC2)C2CCCCC2)c1C(=O)c1ccc(Cl)cc1 [Example 29, {2-Amino-[(dicyclohexylamino)methyl]-5-(furan-3-yl)thiophen-3-yl}(4-chlorophenyl)methanone]
222 to 224	Nc1sc(-c2ccc(F)cc2)c(CN(C2CCCCC2)C2CCCCC2)c1C(=O)c1ccc(Cl)cc1 [Example 15, {2-Amino-4-[(dicyclohexylamino)methyl]-5-(4-fluorophenyl)thiophen-3-yl}(4-chlorophenyl)methanone]
195 to 197	Nc1sc(-c2ccc(Cl)s2)c(CN(C2CCCCC2)C2CCCCC2)c1C(=O)c1ccc(Cl)cc1 [Example 32, {5-Amino-5′-chloro-3-[(dicyclohexylamino)methyl]-2,2′-bithiophen-4-yl}(4-chlorophenyl)methanone]
191 to 194	Cc1ccc(-c2sc(N)c(C(=O)c3ccc(Cl)cc3)c2CN(C2CCCCC2)C2CCCCC2)cc1 [Example 18, {2-Amino-4-[(dicyclohexylamino)methyl]-5-(4-methylphenyl)thiophen-3-yl}(4-chlorophenyl)methanone]
168 to 170	Nc1sc(-c2cccnc2)c(CN(C2CCCCC2)C2CCCCC2)c1C(=O)c1ccc(Cl)cc1 [Example 35, {2-amino-4-[(dicyclohexylamino)methyl]-5-(pyridin-3-yl)thiophen-3-yl}(4-chlorophenyl)methanone]
156.5 to 160	COC(=O)CN(C)Cc1c(-c2ccccc2)sc(N)c1C(=O)c1ccc(Cl)cc1 [Example 16-7]
131.5 to 136	COc1ccc(N(C)Cc2c(-c3ccccc3)sc(N)c2C(=O)c2ccc(Cl)cc2)cc1 [Example 16-12, {2-Amino-4-[((4-methoxyphenyl)(methyl)amino)methyl]-5-phenylthiophen-3-yl}(4-chlorophenyl)methanone]
223 to 225	Nc1sc(-c2ccccc2F)c(CN(C2CCCCC2)C2CCCCC2)c1C(=O)c1ccc(Cl)cc1 [Example 13, {2-Amino-4-[(dicyclohexylamino)methyl]-5-(2-fluorophenyl)thiophen-3-yl}(4-chlorophenyl)methanone]
214 to 216	Nc1sc(-c2ccncc2)c(CN(C2CCCCC2)C2CCCCC2)c1C(=O)c1ccc(Cl)cc1 [Example 36, {2-amino-4-[(dicyclohexylamino)methyl]-5-(pyridin-4-yl)thiophen-3-yl}(4-chlorophenyl)methanone]
147 to 150	Nc1sc(/C=C/CC2CCCCC2)c(CN(C2CCCCC2)C2CCCCC2)c1C(=O)c1ccc(Cl)cc1 [Example 37, (E)-{2-Amino-5-(3-cyclohexylprop-1-enyl)-4-[(dicyclohexylamino)methyl]thiophen-3-yl}(4-chlorophenyl)methanone]
162 to 165	CCCN(Cc1c(-c2ccccc2)sc(N)c1C(=O)c1ccc(Cl)cc1)C1CCCCC1 [Example 16-5, {2-Amino-4-[(cyclohexyl(propyl)amino)methyl]-5-phenylthiophen-3-yl}(4-chlorophenyl)methanone]
151 to 157	C=CCN(Cc1c(-c2ccccc2)sc(N)c1C(=O)c1ccc(Cl)cc1)C1CCCCC1 [Example 16-6]
222 to 225	Nc1sc(-c2ccc(Cl)c(Cl)c2)c(CN(C2CCCCC2)C2CCCCC2)c1C(=O)c1ccc(Cl)cc1 [Example 16-14, {2-Amino-5-(3,4-dichlorophenyl)-4-[(dicyclohexylamino)methyl]thiophen-3-yl}(4-chlorophenyl)methanone]
135 to 140	Nc1sc(-c2ccccc2)c(CNC23CC4CC(CC(C4)C2)C3)c1C(=O)c1ccc(Cl)cc1 [Example 16-10, {2-Amino-4-[(1-adamantylamino)methyl]-5-phenylthiophen-3-yl}(4-chlorophenyl)methanone]
162 to 164	COCCOc1ccc(-c2sc(N)c(C(=O)c3ccc(Cl)cc3)c2CN(C2CCCCC2)C2CCCCC2)cc1
80 to 84	CN(Cc1c(-c2ccccc2)sc(N)c1C(=O)c1ccc(Cl)cc1)c1ccc(Cl)c(Cl)c1 [Example 16-11, {2-Amino-4-[((3,4-dichlorophenyl)(methyl)amino)methyl]-5-phenylthiophen-3-yl}(4-chlorophenyl)methanone]
158 to 160	Nc1sc(-c2ccco2)c(CN(C2CCCCC2)C2CCCCC2)c1C(=O)c1ccc(Cl)cc1 [Example 31, {2-Amino-4-[(dicyclohexylamino)methyl]-5-(furan-2-yl)thiophen-3-yl}(4-chlorophenyl)methanone]
200 to 204	Nc1sc(-c2ccc(Cl)cc2)c(CN(C2CCCCC2)C2CCCCC2)c1C(=O)c1ccc(Cl)cc1 [Example 12, {2-Amino-5-(4-chlorophenyl)-4-[(dicyclohexylamino)methyl]thiophen-3-yl}(4-chlorophenyl)methanone]
196 to 200	N#Cc1ccc(-c2sc(N)c(C(=O)c3ccc(Cl)cc3)c2CN(C2CCCCC2)C2CCCCC2)cc1 [Example 10, {2-Amino-5-(4-cyanophenyl)-4-[(dicyclohexylamino)methyl]thiophen-3-yl}(4-chlorophenyl)methanone]
127 to 133	CC(C)CN(Cc1c(-c2ccccc2)sc(N)c1C(=O)c1ccc(Cl)cc1)CC(C)C [Example 16-2, {2-Amino-4-[(diisobutylamino)methyl]-5-phenylthiophen-3-yl}(4-chlorophenyl)methanone]
180 to 184	CC(C)(C)c1ccc(-c2sc(N)c(C(=O)c3ccc(Cl)cc3)c2CN(C2CCCCC2)C2CCCCC2)cc1 [Example 11, {2-Amino-5-(4-t-butylphenyl)-4-[(dicyclohexylamino)methyl]thiophen-3-yl}(4-chlorophenyl)methanone]
